The text below walks through data of PubChem BioAssay AID1996.

In brackets after ≈: the same amount, converted by molar mass. Where only a bound is given, the exact number is not on record here.

The conditions of the data set: buffer; pH 7.4; 200.0 µM.
For orientation: solubility (kinetic) means solubility judged after dilution from a stock solution rather than from solid. `Cc1ccc(C)c(C(=O)COC(=O)c2c(-c3ccccc3)noc2C)c1` had a kinetic solubility of 4.4 µg/mL (≈ 12.6 µM). The figure for `CCN1c2ccccc2S(=O)(=O)c2ccccc21` is 15.6 µg/mL (≈ 60.2 µM). The figure for `O=C(COc1ccc(Br)cc1)N1CCc2ccccc2C1` is 20.8 µg/mL (≈ 60.1 µM); for `CCOC(=O)c1cc(NC(=O)c2cccnc2)ccc1N1CCOCC1` it is > 53.3 µg/mL. As to `O=C(O)C(c1ccccc1)N1C(=O)c2ccccc2C1=O` (stereo not given), the solubility (kinetic) was determined as 40.7 µg/mL (≈ 145 µM).

The compound `NS(=O)(=O)c1ccc(NC(=O)c2ccc(S(=O)(=O)N3CCCCC3)cc2)cc1` gave a kinetic solubility of 2.1 µg/mL (≈ 4.96 µM). Compared with the last compound, the solubility kinetic is about 19-fold lower.

Turning to `CC(=O)c1cn(-c2ccc(Cl)cc2)c(=O)[nH]c1=O`, the kinetic solubility was 33.7 µg/mL (≈ 127 µM). This solubility kinetic is about 16-fold higher than that of the compound before. In turn, `CC1CN(C(=O)COC(=O)c2ccc(O)cc2)CC(C)O1` (stereo not given) yielded a solubility (kinetic) of 43.8 µg/mL (≈ 149 µM). With `Cc1csc(SCC(=O)NC2CCCC2)n1` the figure was > 38.5 µg/mL.

In the case of `CC1=CCC(C(=O)O)C(C(=O)Nc2cccnc2)C1` (stereo not given), the solubility (kinetic) was found to be 33.3 µg/mL (≈ 128 µM). With `COc1ccc2nc(C)cc(NCCN3CCOCC3)c2c1` the figure was 42.3 µg/mL (≈ 140 µM); with `Cc1cccc(C(=O)NCC(=O)OCC(=O)c2ccc(Cl)s2)c1`, > 52.8 µg/mL. With `CC(=O)c1ccc(NC(=S)NCC(c2ccco2)N2CCCC2)cc1` (stereo not given) the figure was 52.5 µg/mL (≈ 147 µM); with `CCn1ncc(S(=O)(=O)Nc2cc(Cl)ccc2C)c1C`, > 47.1 µg/mL.

In the case of `NC1=NC(=Nc2cccc(S(N)(=O)=O)c2)c2ccccc21`, the solubility (kinetic) was > 45.1 µg/mL. With `COc1cc(N2CCCC2)ccc1C=O` the figure was 29 µg/mL (≈ 141 µM); with `CC(C)n1c(SCC(=O)N2CCCCC2)nc2c1c(=O)n(C)c(=O)n2C`, > 56.9 µg/mL.

Take `CC(=O)c1cn(N2CCCCC2)c(=O)[nH]c1=O`: the kinetic solubility is > 35.6 µg/mL.

On to `CCC(NC(=O)c1ccccc1Br)c1ccccc1` (stereo not given), for which the solubility (kinetic) was > 47.7 µg/mL. The figure for `CCc1ccc(S(=O)(=O)Nc2ccc(N3CCN(C)CC3)cc2)cc1` is 50.8 µg/mL (≈ 141 µM); for `COc1cc(S(=O)(=O)N(C)C2CCCCC2)c(C)cc1C` it is 1.5 µg/mL (≈ 4.82 µM); for `O=C(NC(=S)Nc1ccc2ncccc2c1)c1ccccc1` it is 1.4 µg/mL (≈ 4.55 µM).

Take `O=C(CCN1CCN(CCO)CC1)Nc1cccc(Br)c1`: the solubility (kinetic) was > 53.4 µg/mL.

For the compound `CCCCN(CCCC)c1nc(-c2ccncc2)nc2ccccc12`, the kinetic solubility is < 0.2 µg/mL. The figure for `Cc1cccc(N=C2NC(=O)/C(=C/c3cccnc3)S2)c1` is 2.7 µg/mL (≈ 9.14 µM); for `COc1ccccc1CCNC(=O)C1(C)CC1(Cl)Cl` (stereo not given) it is > 45.3 µg/mL. The figure for `C/C(=C\C(=O)c1ccc(Cl)s1)N(C)C` is > 34.5 µg/mL. On to `CCOC(=O)C1C(c2ccccc2O)NC(=O)NC1(O)C(F)(F)F` (stereo not given), for which the solubility (kinetic) is > 52.2 µg/mL. Regarding `CN(C)C(=O)Oc1noc2cc(Cl)ccc12`, the solubility (kinetic) came to 27.9 µg/mL (≈ 116 µM).

In the case of `Cc1ccccc1Nc1nc(N)nc(CCl)n1`, the kinetic solubility was > 37.5 µg/mL.

For the compound `CC1CN(CC(=O)Nc2ccc(S(N)(=O)=O)cc2)CC(C)O1` (stereo not given), the kinetic solubility was > 49.1 µg/mL. The figure for `Cc1ccc(CC(=O)N2CCN(C(=O)C3CCCO3)CC2)cc1` (stereo not given) is 43.2 µg/mL (≈ 137 µM).

`O=C(Nc1cccc(F)c1)Nc1cnccn1` gave a solubility (kinetic) of 6.1 µg/mL (≈ 26.3 µM). `O=C(c1ccccc1NS(=O)(=O)c1ccccc1)N1CCCCCC1`: the solubility (kinetic) was > 53.8 µg/mL. In the case of `CCc1noc(C)c1C(=O)Nc1nc(-c2ccccc2)cs1`, the kinetic solubility came to 5 µg/mL (≈ 16 µM). The figure for `Cc1ccc(N2CC(C(=O)NCc3ccco3)CC2=O)cc1Cl` (stereo not given) is 30.8 µg/mL (≈ 92.6 µM); for `COc1cc(OC)cc(C(=O)NCc2ccc3c(c2)OCO3)c1` it is 46.1 µg/mL (≈ 146 µM). The figure for `O=C(Nc1ccc(F)cc1)C(Cc1ccccc1)n1cccc1` (stereo not given) is 31.4 µg/mL (≈ 102 µM). The figure for `Cc1ccc(SCC(=O)NCCCc2ccccc2)cc1` is 5.7 µg/mL (≈ 19 µM); for `COc1ccc2ccccc2c1CN(C)Cc1ccccc1.O=C(O)C(=O)O` it is 53.1 µg/mL; for `CC1CC(C)CN(C(=O)COC(=O)CCC(=O)c2cccs2)C1` (stereo not given) it is > 50.6 µg/mL. `O=C(O)c1cncc(C#CCC2CCCCC2)c1` showed a kinetic solubility of 34.8 µg/mL (≈ 143 µM). On to `COc1ccc(CNC(=O)N2CCN(c3ccccc3)CC2)cc1`, for which the kinetic solubility came out at 3.5 µg/mL (≈ 10.8 µM). Compared with the last compound, the solubility kinetic is about 9.9-fold lower. With `O=C(O)CCSc1nc2ccccc2n1Cc1ccccc1` the figure was 43.7 µg/mL (≈ 140 µM). The figure for `CN(C)/C=N/NC(=O)C1Cc2c(ccc3ccccc23)O1` (stereo not given) is > 42.5 µg/mL; for `CSc1nsc(SC)c1C(=O)O` it is > 33.2 µg/mL.

For `Cc1ccc(S(=O)(=O)NCc2ccccn2)cc1C`, the solubility (kinetic) is > 41.5 µg/mL. With `CC(C)NC(=O)c1ccc(CN2CCc3ccccc3C2)cc1` the figure was 2.6 µg/mL (≈ 8.43 µM). The figure for `O=C(O)c1ncc(Cl)c(Cl)c1Cl` is 33.1 µg/mL (≈ 146 µM). With `Cc1cnc(NC(=O)CCN2C(=O)C3CCCCC3C2=O)s1` (stereo not given) the figure was 39.3 µg/mL (≈ 122 µM); with `CCOc1ccccc1NC(=O)NC1CCCc2ccccc21` (stereo not given), 0.5 µg/mL (≈ 1.61 µM); with `CCOC(=O)c1c(C)[nH]c(C(=O)N2CCN(CC)CC2)c1C`, > 46.1 µg/mL. Turning to `C[C@H](Cc1ccccc1)Nc1ncnc2c1ncn2[C@@H]1O[C@H](CO)[C@@H](O)[C@H]1O`, the solubility (kinetic) was > 57.8 µg/mL. With `Nc1nc2ccccc2cc1S(=O)(=O)c1ccccc1` the figure was 1.1 µg/mL (≈ 3.87 µM); with `CCCCCCCNC(=O)c1cc(-c2ccncc2)nc2ccccc12`, 0.8 µg/mL (≈ 2.3 µM); with `CCC(C(=O)OC(C)C(=O)Nc1ccc(Cl)cn1)c1ccccc1` (stereo not given), 16.9 µg/mL (≈ 48.7 µM).

On to `Cn1ccsc1=NC(=O)c1ccc(S(=O)(=O)C(F)F)cc1`, for which the kinetic solubility was 2.5 µg/mL (≈ 7.52 µM). The compound `CCOc1ccc(NC(=S)Nc2cccnc2)cc1` returned a kinetic solubility of 33.3 µg/mL (≈ 122 µM). This solubility kinetic is about 13-fold higher than that of the compound before. The figure for `O=C(NCCNc1ccc([N+](=O)[O-])cc1)c1cccs1` is 6.7 µg/mL (≈ 23 µM).

With `CSc1ncccc1C(=O)OCC(=O)c1ccc[nH]1`, the kinetic solubility is 9.7 µg/mL (≈ 35.1 µM). With `COC(=O)c1ccccc1-c1cn(C)c2ccccc2c1=O` the figure was > 44 µg/mL; with `CC1CCN(C(=O)c2ccc(-c3ccccc3Cl)o2)CC1`, 7.3 µg/mL (≈ 24 µM).

In the case of `Cc1ccc(C(C)NC(=S)NCc2ccc(F)cc2)cc1C` (stereo not given), the solubility (kinetic) amounted to 6.2 µg/mL (≈ 19.6 µM). The solubility kinetic values of the last two compounds are within 1.5-fold of each other.

Compound `COc1ccccc1CNCc1cc(=O)oc2c(C)c(C)ccc12` came in with a solubility (kinetic) of 3.6 µg/mL (≈ 11.1 µM). Against the preceding compound, the solubility kinetic is about 1.7-fold lower. On to `OCC1OC(n2cnc3c(NC4CCCC4)ncnc32)C(O)C1O` (stereo not given), for which the solubility (kinetic) was > 50.3 µg/mL. With `O=C(NCCCN1CCCC1=O)c1cc2c(s1)CCCCC2` the figure was > 48.1 µg/mL; with `COc1ccc(Nc2ncnc3ccc(Br)cc23)c(OC)c1`, 7.3 µg/mL (≈ 20.3 µM); with `O=C(NC1CC2CCCC(C1)N2C(=O)Nc1ccccc1)c1ccccc1` (stereo not given), 4.6 µg/mL (≈ 12.7 µM). `O=C(Nc1nc2ccccc2[nH]1)c1cc(F)cc(F)c1` returned a kinetic solubility of 0.7 µg/mL (≈ 2.56 µM).

On to `N#Cc1ccccc1S(=O)(=O)N1CCN(C(=O)C2CC(=O)N(c3ccc4c(c3)OCCO4)C2)CC1` (stereo not given), for which the kinetic solubility stood at 68.6 µg/mL (≈ 138 µM). The figure for `Cc1ccc2nc(-c3ccc(-c4ccccn4)s3)cn2c1` is 3.2 µg/mL (≈ 11 µM); for `O=C1ON=C(c2ccccc2)/C1=C/c1ccccc1` it is 34.7 µg/mL (≈ 139 µM); for `Cc1cccc(/C=N/NC(=O)c2cc(C)nc3ccccc23)n1` it is > 45.7 µg/mL. `CC(C)CCNC(=O)c1cc2c(=O)n3ccccc3nc2s1` displayed a kinetic solubility of 4.6 µg/mL (≈ 14.6 µM). With `O=C(NCc1cccnc1)Nc1cccc([N+](=O)[O-])c1` the figure was > 40.8 µg/mL. With `N/C(=N\OC(=O)c1ccoc1)c1ccc(Br)cc1` the figure was 9.2 µg/mL (≈ 29.8 µM); with `COc1ccc2oc(C(=O)OCC(=O)NC3CCCC3)c(C)c2c1`, 6.7 µg/mL (≈ 20.2 µM). `Cc1ccc(OCCSc2nc3ccccc3n2CC(=O)O)cc1`: the solubility (kinetic) was > 51.4 µg/mL. With `COc1ccc(N/C=C/C(=O)c2ccc(OC)c(OC)c2)cc1` the figure was < 0.7 µg/mL; with `COc1ccccc1CNC(=O)CCNC(=O)c1ccco1`, > 45.3 µg/mL. The figure for `COc1ccc(CNC(=O)C(=O)NCc2cccnc2)cc1` is 20.9 µg/mL (≈ 69.8 µM); for `Cc1cc(=O)[nH]c2sc(C(=O)N3c4ccccc4CC3C)c(N)c12` (stereo not given) it is > 50.9 µg/mL. For the compound `CCCS(=O)(=O)N1CCCC(C(=O)c2ccccc2OC)C1` (stereo not given), the kinetic solubility is > 48.8 µg/mL.

Turning to `COC(=O)[C@H](Cc1ccccc1)NC(=O)NCCc1ccc(F)cc1`, the solubility (kinetic) is > 51.7 µg/mL.

In turn, `COc1ccc(Nc2c(-c3ccco3)nc3ccc(C)cn23)cc1` gave a kinetic solubility of 0.5 µg/mL (≈ 1.57 µM). The figure for `COc1ccccc1NC(=S)NC1CCCC1` is 35.9 µg/mL (≈ 143 µM); for `O=C(COc1ccccc1O)NCCN1CCOCC1` it is > 42 µg/mL; for `COc1ccc(OC)c(C(=O)COC(=O)c2ccc([N+](=O)[O-])o2)c1` it is > 50.3 µg/mL.

As for `CCC(=O)c1ccc(OCC(=O)N2CCN(CC(=O)Nc3ccccc3C(F)(F)F)CC2)cc1`, the solubility (kinetic) was > 71.6 µg/mL. The figure for `Clc1ccc(CNc2ccccn2)cc1` is 25.8 µg/mL (≈ 118 µM). With `CCC(C)[C@H](NC(=O)NCc1ccco1)C(=O)OC` (stereo not given in full) the figure was > 40.2 µg/mL; with `COc1ccc(CNC(=S)Nc2cccc(OC)c2)cc1`, 41.1 µg/mL (≈ 136 µM); with `CNCCc1ccccn1.Cl`, > 31.4 µg/mL. With `COC(=O)CSc1nc(C)cc(N2CCOCC2)n1` the figure was > 42.5 µg/mL. In turn, `O=c1oc2ccccc2n1Cc1ccccc1F` came in with a kinetic solubility of 4.2 µg/mL (≈ 17.3 µM). For the compound `Cc1ccccc1-n1c(=S)[nH]c2nc3c(cc2c1=O)COC(C)(C)C3`, the kinetic solubility is 30.7 µg/mL (≈ 86.9 µM). Regarding `Cc1ccc(NC(=O)C2OCCc3ccccc32)cc1Cl` (stereo not given), the solubility (kinetic) is < 0.6 µg/mL. Compound `COc1ccc(NC(=O)CNc2cc(S(=O)(=O)N3CCOCC3)ccc2N2CCOCC2)c(OC)c1` returned a solubility (kinetic) of 4.2 µg/mL (≈ 8.07 µM). The figure for `COc1ccc(C(C)(C)C)cc1NC(=O)c1ccc[n+]([O-])c1` is > 45.1 µg/mL; for `CNc1nc(-c2ccc(S(=O)(=O)N3CCCCC3)cc2)cs1` it is 2.8 µg/mL (≈ 8.3 µM). Turning to `Cc1ccc(C(=O)N2CCCCC2)cc1S(=O)(=O)N1CCCC1`, the solubility (kinetic) was > 50.5 µg/mL.

With `COc1ccc(C(C)C)cc1S(=O)(=O)NC1CCCC1`, the solubility (kinetic) came to 3 µg/mL (≈ 10.1 µM). Regarding `O=C(Nc1cc(Cl)ccc1O)C1CC(c2ccccc2O)=NO1` (stereo not given), the kinetic solubility was 5.8 µg/mL (≈ 17.4 µM). The figure for `O=C(Nc1ccccc1)Nc1cccc2nsnc12` is 5.7 µg/mL (≈ 21.1 µM); for `CC(C)[C@H](NC(=O)c1ccccc1Cl)C(=O)Nc1ccc(S(=O)(=O)Nc2nccs2)cc1` it is 14.6 µg/mL (≈ 29.6 µM).
